# According to article PMC6108835, “Target-Based Discovery of an Inhibitor of the Regulatory Phosphatase PPP1R15B” (Cell, 2018):
# Key:
# [1] = system: eIF2α phosphorylation (HeLa cells); test: Protein analyses on immunoblots, HeLa cells; format: cell-based, human; settings: for eIF2α phosphorylation: 0-10 h
# Description: HeLa or MEF cells (90,000 cells/mL) were plated in 12-well plates (1 mL/well). The following day cells were treated as indicated; the medium was removed, fresh medium containing compound added and incubated at 37°C for the times indicated. The time course was performed in reverse order to facilitate collecting all samples at the same time. At the end of treatment cells were washed two times with ice-cold PBS and lysed in 150 μL Laemmli Buffer. Lysates were transferred to 1.5 mL eppendorf tubes, boiled at 95°C for 5 min, sonicated and resolved on Bolt SDS-PAGE 4%–12% Bis-Tris gels (ThermoFisher Scientific). Proteins were transferred to the nitrocellulose membrane using the iBlot 2 system (ThermoFisher Scientific). Membrane was blocked in 5% skimmed milk for 30 min and then probed with primary antibodies followed by incubation with the appropriate horseradish peroxidase-conjugated secondary antibodies (Promega). Proteins were visualized using ECL Prime (GE Healthcare) and imaged in the Chemi-Smart 5000 (Vilber-Lourmat, France) or ChemiDoc Touch (BioRad). Bands were quantified using ImageJ (NIH, USA). The following primary antibodies were used: e-IF2α-P (ThermoFisher Scientific (#44-728G), 1:1,000), e-IF2α (Abcam (#ab5369), 1:1,000), tubulin (Sigma-Aldrich (#T5168), 1:4,000), BiP (BD Biosciences PharMingen (#610978), 1:1,000), ATF4 (Santa Cruz Biotechnology (#sc-200), 1:500), Ppp1r15a (Proteintech (#10449-1-AP), 1:1,000), Ppp1r15b (Proteintech (#14634-1-AP), 1:1,000) and CHOP (ABR Affinity BioReagents (#MA1-250), 1:1,000).
# [2] = target: Adrenergic α2A (FAST-006A) receptor (Homo sapiens, UniProt P08913); test: α2-adrenergic activity in cells expressing recombinant receptor (Euroscreen); format: cell-based; settings: agonist testing, also videos of mice at 10 mg/kg
# Sequence of Adrenergic α2A (FAST-006A) receptor (P08913 whole entry): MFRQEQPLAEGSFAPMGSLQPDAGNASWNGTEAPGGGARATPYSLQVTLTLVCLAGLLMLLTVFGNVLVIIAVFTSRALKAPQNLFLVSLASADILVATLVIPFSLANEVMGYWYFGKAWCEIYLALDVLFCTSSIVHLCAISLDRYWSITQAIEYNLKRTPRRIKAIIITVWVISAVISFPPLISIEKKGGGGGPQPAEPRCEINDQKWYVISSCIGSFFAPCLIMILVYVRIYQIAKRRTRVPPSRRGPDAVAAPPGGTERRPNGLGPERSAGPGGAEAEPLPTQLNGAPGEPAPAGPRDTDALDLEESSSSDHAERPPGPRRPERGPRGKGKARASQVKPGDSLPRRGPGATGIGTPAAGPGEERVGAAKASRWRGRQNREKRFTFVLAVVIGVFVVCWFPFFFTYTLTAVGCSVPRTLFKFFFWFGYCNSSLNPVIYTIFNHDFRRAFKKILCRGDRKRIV
# Description: α2-adrenergic activity was measured by Euroscreen. Adrenergic α2A (FAST-006A) receptor cells grown 18 hr prior to the test in media without antibiotics were detached by gentle flushing with PBS-EDTA (5 mM EDTA), recovered by centrifugation and re-suspended in “assay buffer” (DMEM/HAM’s F12 with HEPES + 0.1% BSA protease free). Cells were incubated at RT for at least 4 hr with Coelenterazine h (Molecular Probes). Dose response curves with the reference compounds were performed before testing the compounds. For agonist testing, 50 μL of cell suspension was mixed with 50 μL of test compound or reference agonist plated in a 96-well plate. The resulting emission of light was recorded using the Hamamatsu Functional Drug Screening System 6000 (FDSS 6000). Agonist activity of test compound was expressed as a percentage of the activity of the reference agonist at its EC100 concentration.
# R15B = target: T1, R15B (Homo sapiens, UniProt Q5SWA1); test: Limited trypsin digestion of R15B; settings: R15 3 μM, compound 100 μM, trypsin 5 nM, 5 min, 22°C
# T1 construct: cDNAs encoding amino acids 325-636 of R15A and 340-698 of R15B were cloned into pMAL-c5x; made in house; host or cells: E. coli BL21-Gold (DE3) pLysS
# T1 sequence (Q5SWA1 340-698): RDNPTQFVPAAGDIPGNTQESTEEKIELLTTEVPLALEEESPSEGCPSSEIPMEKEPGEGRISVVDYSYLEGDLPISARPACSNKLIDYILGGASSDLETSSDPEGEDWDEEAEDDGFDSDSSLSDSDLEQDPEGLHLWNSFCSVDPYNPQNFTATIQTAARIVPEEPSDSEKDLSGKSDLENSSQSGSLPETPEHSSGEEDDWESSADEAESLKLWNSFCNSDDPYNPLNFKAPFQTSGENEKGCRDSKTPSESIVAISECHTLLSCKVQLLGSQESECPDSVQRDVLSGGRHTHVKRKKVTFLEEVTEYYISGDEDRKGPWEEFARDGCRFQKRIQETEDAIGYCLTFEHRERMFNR
# Description: Reactions were initiated by addition of 5 nM of trypsin from bovine pancreas (Sigma-Aldrich), made up in PBS, and allowed to proceed for 5 min at 22°C, with shaking at 350 rpm. […] Proteins were visualized by staining with InstantBlue Protein Stain (Expedeon).
# wild-type mice = test: Morris water maze; format: in vivo, mouse; settings: 2 mg/kg for 2 weeks
# Description: Morris water maze and the following fear conditioning were performed on C57BL/6J wild-type males aged 2.5 months. Mice were treatment- and test-naive before the treatment started. Treatment with Raphin1 started two weeks before and was continued during the behavioral tests.
# The water maze consisted of a white circular tank (1.50 m diameter) filled with opaque water adjusted to 21 ± 1°C. For the hidden platform task, the escape platform (10 cm diameter) was positioned 1 cm below water surface in the center of one of the pool quadrants. The walls surrounding the water maze were hung with posters and flags, which served as visual cues and were visible during all stages of 5 trainings and testing. Movement of the mice within the pool was tracked and analyzed with a computerized tracking system (ViewPoint, France). During training mice were required to locate a submerged hidden platform by using only extra-maze cues. Each mouse received five blocks of training trials over five consecutive days. […] Spatial learning performance was assessed during a probe trial 1 hr after the last session of training, and for which the target platform was removed from the pool. To evaluate the performance during training trials the latency and distance traveled to find the hidden platform were measured. […]
# [3] = Pharmacokinetics after single oral administration in mice; format: in vivo; settings: mouse
# Description: The acetate salts of Raphin1 or GBZ were dissolved in water and sonicated for 10 min. The solution was aliquoted and kept at −20°C until use. Once thawed a tube was kept at 4°C and used within 24 hr. The compounds were administered by oral gavage.
# Raphin1 was administered at 2 mg/kg (unless otherwise specified). Mice received a single dose or were treated chronically – one time per day. Control mice were treated with vehicle (water) only.
# Pharmacokinetics studies were performed by XenoGesis Ldt. Raphin1 was administrated orally in 6 weeks old treatment- and test-naive C57BL/6J males. Plasma samples were prepared by protein precipitation with methanol containing internal standards. Tissues were weighed and prepared by homogenization (1:3 in phosphate buffered saline) and protein precipitated with methanol containing internal standard. Following the addition of methanol, plasma and tissue samples were placed at −20°C for ≥ 1 hr (or overnight) to allow proteins to precipitate. The samples were then centrifuged at 2,500 x g (3,400 rpm) for 20 min at 4°C. The supernatants were analyzed by LC-MS/MS.
smiles,measurement,setting,value
"[H]/N=C(\N)NN=Cc1cccc(Cl)c1Cl [Raphin1, (E)-2-(2,3-dichlorobenzylidene)hydrazine-1-carboximidamide]",ATF4 and R15A induction,[1]; 10 μM,induced
same,Stress marker BiP,[1]; 10 μM,did not increase
same,eIF2α phosphorylation,[1]; 20 μM,persistent phosphorylation
same,eIF2α phosphorylation,"[1]; unstressed, 10 μM",rapidly and transiently increased
same,α2-adrenergic activity,[2],lacked
same,"Protease sensitivity of R15B (limited proteolysis, conformational change)",R15B,protected
same,"Adverse effects on memory, Morris water maze",wild-type mice,no adverse effects
same,half-life,"[3]; male, C57BL/6J, brain, single oral dose 2 mg/kg",4 to 6 h
same,Oral bioavailability (in words),[3],orally bioavailable
same,Blood-brain barrier crossing,[3]; single oral dose 2 mg/kg,crossed the blood-brain barrier
same,Peak concentration in the brain,[3]; single oral dose 2 mg/kg,~1.5 µM
